US5162328A, “N-[3-[2-(1H-imidazol-1-yl)ethoxy]phenyl]-4-(2-thienyl)-2-pyrimidinamine and pharmacologically acceptable salts” (American Cyanamid Company, priority 1991, dated 1992)

Tested on: immunologically stimulated human basophils
Test: Inhibition of histamine release from immunologically stimulated human basophils
Format: cell-based
Conditions: for IC50: Homo sapiens
Description: The bronchospasm of allergic asthma is a consequence of the release of mediators, such as histamine and slow-reacting substances from mast cells. The role of mediator release in the induction of an asthmatic attack has been fully reviewed and documented; see […]. and Austen, K. F., Bronchial Asthma Mechanisms and Therapeutics, E. B. Weiss, Editor, Little, Brown and Company, Boston, 163, (1976); Lichtenstein, L. M., Asthma-Physiology, Immunopharmacology and Treatment, Second International Symposium, L. M. Lichtenstein and K. F. Austen, Editors, Academic Press, New York, 51, (1979); and Bell, S. C., et al., Annular Reports in Medicinal Chemistry, 14, 51, H. J. Hess, Editor, Academic Press, New York, (1979). The novel compounds of this invention have been tested by the procedure of Lichtenstein, L. M. and Osler, A. G., J. Exp. […] Dissolve 140.3 g of sodium chloride, 7.45 g of Trizma-Tris Pre-Set, Reagent Grade, pH 7.6 at 25° C. (Sigma Chemical Co.) in sufficient water to give a final volume of 2 liters. (Sigma chemical Co.) (30 mg/ml) Made to 0.075M and 0.5M respectively, with calcium chloride dihydrate and magnesium chloride hexahydrate. A 10 ml portion of 10× Tris Buffer and 1.0 ml of human albumin are diluted to 100 ml with water. A 10 ml portion of 10× Tris Buffer, 1.0 ml of human albumin, 0.8 ml of calcium stock and 0.2 ml of magnesium stock are diluted to 100 ml with water. Behring Diagnostics (Generally used at 10 μg protein/ml final concentration). Strength 1:100 (w:v) allergenic extract, Hollister-Stier Labs. Generally this is diluted 1:1000 to 1:10,000 (considering the vial as stock). Interdermal solutions or intramuscular preparations for hyposensitization, Hollister-Stier Labs. The final concentrations used are on the order of 1 PNU/ml. Using four 20 ml heparinized tubes, […] of blood are withdrawn from subjects with known histamine release to anti-IgE, ragweed antigen or other specific allergen. These 80 ml of blood are mixed with 20 ml of saline containing 0.6 g of dextrose and 1.2 g of dextran. The blood is allowed to sediment at room temperature in two 50 ml polycarbonate centrifuge tubes until a sharp interface develops between the red cells and plasma (60-90 minutes). The plasma, containing the leukocytes, (top) layer from each tube, is withdrawn by pipet and transferred to 50 ml polycarbonate tubes. The plasma is centrifuged for 8 minutes at 110× G at 4° C. The supernatant is carefully poured off as completely as possible and the cell button is resuspended in 2-3 ml of Tris-A buffer using a siliconized Pasteur pipet. The resuspension is accomplished by drawing the liquid gently in an out of the pipet, with the tip below the liquid until an even suspension of cells is obtained. […]

In the case of `Cc1cc(Nc2nccc(-c3ccncc3)n2)ccc1N.Cl.Cl` [Compound 2, 2-methyl-N^4-[4-(4-pyridinyl)-2-pyrimidinyl]-1,4-benzenediamine dihydrochloride, reference compound], the IC50 is reported as 900 nM.
In the case of `CCN(CC)CCOc1ccc(Nc2nccc(-c3ccncc3)n2)cc1.Cl.Cl` [Compound 3, N-[4-[2-(diethylamino)ethoxy]phenyl]-4-(4-pyridinyl)-2-pyrimidinamine dihydrochloride, reference compound], the IC50 is reported as 200 ± 20 nM.
In the case of `c1cc(Nc2nccc(-c3cccs3)n2)cc(OCCn2ccnc2)c1` [N-[3-[2-(1H-imidazol-1-yl)ethoxy]phenyl]-4-(2-thienyl)-2-pyrimidinamine], the “activity in basophil histamine release assay (in words)” value (compared with the two compounds of U.S. Pat. No. 4,788,195) is reported as “essentially equivalent high activity”.
